# Test results as given in publication PMC10671360, “In Silico and In Vitro Study towards the Rational Design of 4,4′-Disarylbisthiazoles as a Selective α-Synucleinopathy Biomarker” (International Journal of Molecular Sciences, 2023).
# Assays:
# [1] = Solubility in the incubation medium of the binding assays; type: physicochemical; details: incubation buffer of the binding assays
# [2] = molecular target: T1, recombinant α-syn fibrils (Homo sapiens, UniProt P37840); assay: Competition binding assay against [^3H]DCVJ, α-syn fibrils; details: for Selectivity Aβ/α-syn / Selectivity tau/α-syn: ratio of Ki, [^3H]DCVJ was used
# T1 construct: made in house
# Protocol: The incubation of purified recombinant α-synuclein monomer (10 mg/mL) obtained as described by Uzuegbunam was carried out in PBS (pH 7.4) at 37 °C. The solution was left shaking at 900 rpm in an Eppendorf Thermomixer for up to 84 h. Determination of the concentration of the formed fibrils (α-syn) was carried out following the centrifugation of the reaction vial at 12,000× g for 5 min. The pellet obtained was washed thrice with 20 mM of Tris-HCl, pH 7.4. The supernatants from the three centrifugation steps were combined, and the concentration of the monomer in the resulting supernatant was determined in a BCA assay (Thermo Fisher Scientific, Waltham, MA, USA) (with a BSA standard curve). Determination of the concentration of α-syn was carried out by subtracting the amount of α-synuclein monomer in the supernatant from the initial amount used for fibrillation.
# The pellets of the fibrils obtained above (Section 4.2.1) were resuspended in 20 mM of Tris-HCl, pH 7.4 and diluted as needed for the binding assays.
# (§1) A fixed concentration of [^3H]DCVJ (10 nM) and α-synuclein aggregates (125 nM), prepared as described above (Section 4.2.3), was used with different final concentrations of the DABTAs from 0.01 to 100 nM (see SI Figure S1). The experiment was carried out in quintuplicate for each concentration. The mixture was incubated for 2 h in a final volume of 200 μL per well after dilution with 20 mM of Tris-HCl, pH 7.4. The incubated mixtures were filtered through a Perkin Elmer GF/B glass filter via a TOMTEC cell harvester and immediately washed thrice with 1 mL of deionized water. The filters containing the bound ligands were dried and afterwards mixed with 3 mL of BetaPlate Scint solution (Perkin Elmer Life Sciences, Waltham, MA, USA) and left there for 2 h before counting in a Wallac 1450 MicroBeta TriLux Liquid Scintillation Counter (PerkinElmer Life Sciences, Waltham, MA, USA). For the determination of the inhibition constants, data were analyzed using GraphPad Prism software (version 7.0) to obtain IC50 values by fitting the data to the equation Y = bottom + (top − bottom)/(1 + 10(x − log IC50)). Ki values were calculated from IC50 values using the equation Ki = IC50/(1 + [radioligand]/Kd). […] Further protocol was carried out as for [^3H]DCVJ (see SI Figure S3).
# [3] = molecular target: tau fibrils (Homo sapiens, UniProt P10636); assay: Competition binding assay against [^3H]PiB, tau fibrils
# Chain of tau fibrils (P10636 2-758): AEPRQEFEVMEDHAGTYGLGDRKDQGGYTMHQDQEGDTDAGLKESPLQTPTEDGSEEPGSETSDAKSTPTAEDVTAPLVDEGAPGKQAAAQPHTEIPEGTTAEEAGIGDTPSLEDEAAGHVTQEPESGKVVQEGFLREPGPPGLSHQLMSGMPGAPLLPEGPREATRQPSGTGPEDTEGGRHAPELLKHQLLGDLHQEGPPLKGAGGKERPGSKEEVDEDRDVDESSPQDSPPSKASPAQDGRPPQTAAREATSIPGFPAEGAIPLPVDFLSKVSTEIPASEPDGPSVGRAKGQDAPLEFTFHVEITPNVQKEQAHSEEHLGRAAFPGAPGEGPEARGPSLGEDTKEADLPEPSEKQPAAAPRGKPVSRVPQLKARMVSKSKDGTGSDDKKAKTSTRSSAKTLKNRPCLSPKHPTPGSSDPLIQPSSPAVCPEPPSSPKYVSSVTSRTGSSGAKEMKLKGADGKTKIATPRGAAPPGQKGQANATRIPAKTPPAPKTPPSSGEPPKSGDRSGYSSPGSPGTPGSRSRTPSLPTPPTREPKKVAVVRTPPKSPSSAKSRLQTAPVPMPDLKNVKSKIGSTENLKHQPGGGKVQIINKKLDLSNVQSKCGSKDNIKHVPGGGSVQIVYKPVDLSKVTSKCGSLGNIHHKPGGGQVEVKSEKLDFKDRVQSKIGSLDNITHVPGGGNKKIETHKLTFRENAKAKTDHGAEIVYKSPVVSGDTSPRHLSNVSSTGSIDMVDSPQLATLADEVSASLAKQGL
# Protocol: as §1, with “Recombinant tau monomer (R&D systems, Minneapolis, MN, USA) was dissolved in 20 mM of Tris HCl, pH 8.0, 100 mM of NaCl, 25 μM of low-MW heparin, and 0.5 mM of dithiothreitol to a final concentration of 300 µg/mL. The mixture was incubated with shaking at 900 rpm at 37 °C for 48 h. To separate the non-aggregated monomers from the formed fibrils, the reaction mixture was centrifuged at 12,000× g for 5 min, and the resulting pellet was washed three times with 500 μL of 20 mM Tris-HCl, pH 7.4. The supernatants from the three centrifugation steps were combined, and the concentration of the monomer in the resulting supernatant was determined in a BCA assay(Thermo Fisher Scientific, Waltham, MA, USA) (with a BSA standard curve). Determination of the concentration of fibrils formed was carried out by subtracting the amount of tau peptide monomer in the supernatant from the initial amount used for fibrillation. The pellets of the fibrils obtained above (Section 4.2.1) were resuspended in 20 mM of Tris-HCl, pH 7.4 and diluted as needed for the binding assays. A fixed” for “A fixed”, “Figure S3). […] Further procedures followed the same already described in Section 4.2.3.1 (See SI Figure S4).” for “Figure S3).”
# [4] = molecular target: T1, recombinant α-syn fibrils; assay: Competition binding assay against [^3H]PiB, α-syn fibrils; details: for Selectivity Aβ/α-syn / Selectivity tau/α-syn: ratio of Ki, [^3H]PiB was used
# [5] = [^3H]DCVJ was used (10 nM), α-synuclein aggregates 125 nM
solubility in the incubation medium [1],"Ki [2, 5]",Selectivity Aβ/α-syn [2],Selectivity tau/α-syn [2],Ki [3],Ki [4],Selectivity Aβ/α-syn [4],Selectivity tau/α-syn [4],"Ki α-syn [2, 5]",Compound
decreased solubility,1.36 nM,299.1,>735.3,434 nM,4.75 nM,45.1,91.5,,Fc1ncc(-c2csc(-c3nc(-c4cnc5c(c4)OCO5)cs3)n2)cn1 [d10]
,0.99 nM,253.1,469.6,766 nM,1.51 nM,122.6,507.5,,"FCCOc1cnc(-c2csc(-c3nc(-c4cnc5c(c4)OCO5)cs3)n2)nc1 [f4, 6-(4′-(5-(2-Fluoroethoxy)pyrimidin-2-yl)-[2,2′-bithiazol]-4-yl)-[1,3]dioxolo[4,5-b]pyridine]"
,2.27 nM,58.9,227.0,516 nM,2.88 nM,53.8,179.2,,"FCCOc1cnc(-c2csc(-c3nc(-c4ccc5c(c4)OCO5)cs3)n2)nc1 [f5, 4-(Benzo[d][1,3]dioxol-5-yl)-4′-(5-(2-fluoroethoxy)pyrimidin-2-yl)-2,2′-bithiazole]"
,0.5 nM,395.6,874.4,362 nM,4.89 nM,19.8,74.1,subnanomolar,"FCCOCCOc1cnc(-c2csc(-c3nc(-c4ccc5c(c4)OCO5)cs3)n2)nc1 [f6, 4-(Benzo[d][1,3]dioxol-5-yl)-4′-(5-(2-(2-fluoroethoxy)ethoxy)pyrimidin-2-yl)-2,2′-bithiazole]"
